For 17 compounds, remaining activity and IC50 results are on record in patent publication US8846668B2, “Inhibitors of 11beta-hydroxysteroid dehydrogenase 1” (Vitae Pharmaceuticals, Inc., priority 2008, dated 2014).

T1 sequence (P28845 whole entry): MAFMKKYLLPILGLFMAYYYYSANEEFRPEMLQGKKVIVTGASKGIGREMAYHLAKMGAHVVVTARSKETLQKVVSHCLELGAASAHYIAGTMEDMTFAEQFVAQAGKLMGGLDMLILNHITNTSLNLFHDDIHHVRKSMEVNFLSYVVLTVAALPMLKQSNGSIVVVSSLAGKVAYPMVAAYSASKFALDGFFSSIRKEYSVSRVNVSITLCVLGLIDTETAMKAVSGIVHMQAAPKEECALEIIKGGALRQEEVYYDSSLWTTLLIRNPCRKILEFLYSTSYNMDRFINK

The first experiment concerns the target T1, 11β-HSD1 (human liver microsomes) (Homo sapiens, UniProt P28845).
T1 construct: detecting cortisol generated from cortisterone by human liver microsomes; from tissue; host or cells: human liver microsomes
Briefly: In vitro inhibition of 11β-HSD1, HTRF detection of cortisol generated by human liver microsomes. The experiment is classed as biochemical. The settings on record: 100 nM inhibitor, 100% indicates no inhibition, zero or below zero indicates complete inhibition, 1 hour at 37° C., read-out: Average % control inhibition at 100 nM. (In general: In TR-FRET formats the signal depends on donor and acceptor labels being close together.)
Protocol: Briefly, compounds were incubated for 1 hour at 37° C. in Tris buffer (20 mM tris, 5 mM EDTA, pH 6.0) containing NADPH (200 μM) and cortisone (80 nM). Cortisol generated in the reaction is then detected with a competitive immunoassay, involving two HTRF conjugates: cortisol linked to XL665 and anti-cortisol antibody labeled with Europium cryptate. The incubation period for detection reaction was typically 2 hours. […] The ratio of the two emission signals is then calculated (Em665*10000/Em615). […] Each assay also contained a calibration curve with cortisol to transform the fluorescent data into cortisol concentrations. Percent inhibition of each compound was determined relative to the carbenoxolone signal.
As to `CCNC(=O)c1ccc(-c2ccc([C@H](C)N3CC[C@](CC(C)(C)O)(c4ccccc4)OC3=O)cc2)cn1` [Example 15, 5-(4-{(S)-1-[(S)-6-(2-Hydroxy-2-methyl-propyl)-2-oxo-6-phenyl-[1,3]oxazinan-3-yl]-ethyl}-phenyl)-pyridine-2-carboxylic acid ethylamide], the remaining activity at 0.1 µM is -34%.

In the case of `CNC(=O)c1ccc(-c2ccc([C@H](C)N3CC[C@](CC(C)(C)O)(c4ccccc4)OC3=O)cc2)cn1` [Example 16, 5-(4-{(S)-1-[(S)-6-(2-Hydroxy-2-methyl-propyl)-2-oxo-6-phenyl-[1,3]oxazinan-3-yl]-ethyl}-phenyl)-pyridine-2-carboxylic acid methylamide], the remaining activity at 0.1 µM was -24%.

Consider `C[C@@H](c1ccc(-c2ccc(C(=O)N(C)C)nc2)cc1)N1CC[C@](CC(C)(C)O)(c2ccccc2)OC1=O` [Example 17, (4-{(S)-1-[(S)-6-(2-Hydroxy-2-methyl-propyl)-2-oxo-6-phenyl-[1,3]oxazinan-3-yl]-ethyl}-phenyl)-pyridine-2-carboxylic acid dimethylamide], for which the remaining activity at 0.1 µM was -10%.

For `C[C@@H](c1ccc(C2CCNCC2)cc1)N1CC[C@](CC(C)(C)O)(c2ccccc2)OC1=O` [Example 18, (S)-6-(2-Hydroxy-2-methyl-propyl)-6-phenyl-3-[(S)-1-(4-piperidin-4-yl-phenyl)-ethyl]-[1,3]oxazinan-2-one], the remaining activity at 0.1 µM came out at 93%. With `C[C@@H](c1ccc(C2CCN(C)CC2)cc1)N1CC[C@](CC(C)(C)O)(c2ccccc2)OC1=O` [Example 21, (S)-6-(2-Hydroxy-2-methyl-propyl)-3-{(5)-1-[4-(1-methyl-piperidin-4-yl)-phenyl]-ethyl}-6-phenyl-[1,3]oxazinan-2-one], the remaining activity at 0.1 µM worked out at 97%. For `C[C@@H](c1ccc(C2CCN(S(C)(=O)=O)CC2)cc1)N1CC[C@](CC(C)(C)O)(c2ccccc2)OC1=O` [Example 22, (S)-6-(2-Hydroxy-2-methyl-propyl)-3-{(S)-1-[4-(1-methanesulfonyl-piperidin-4-yl)-phenyl]-ethyl}-6-phenyl-[1,3]oxazinan-2-one], the remaining activity at 0.1 µM amounted to 17%. Turning to `C[C@@H](c1ccc(C2CCN(C(=O)[C@@H]3CCCO3)CC2)cc1)N1CC[C@](CC(C)(C)O)(c2ccccc2)OC1=O` [Example 23, (S)-6-(2-Hydroxy-2-methyl-propyl)-6-phenyl-3-((S)-1-{4-[1-((S)-tetrahydro-furan-2-carbonyl)-piperidin-4-yl]-phenyl}-ethyl)-[1,3]oxazinan-2-one], the remaining activity at 0.1 µM came out at 44%. For `C[C@@H](c1ccc(C2CCN(C(=O)[C@H]3CCCO3)CC2)cc1)N1CC[C@](CC(C)(C)O)(c2ccccc2)OC1=O` [Example 24, (S)-6-(2-Hydroxy-2-methyl-propyl)-6-phenyl-3-((S)-1-{4-[1-((R)-tetrahydro-furan-2-carbonyl)-piperidin-4-yl]-phenyl}-ethyl)-[1,3]oxazinan-2-one], the remaining activity at 0.1 µM amounted to 53%.

Consider `C[C@@H](c1ccc(C2CCN(C(=O)C(C)(C)O)CC2)cc1)N1CC[C@](CC(C)(C)O)(c2ccccc2)OC1=O` [Example 25, (S)-6-(2-Hydroxy-2-methyl-propyl)-6-phenyl-3-((S)-1-{4-[1-(2-hydroxy-2-propyl-carbonyl)-piperidin-4-yl]-phenyl}-ethyl)-[1,3]oxazinan-2-one], for which the remaining activity at 0.1 µM worked out at 71%. Turning to `C[C@@H](c1ccc(C2CCN(C(=O)[C@@H]3CCCN3C)CC2)cc1)N1CC[C@](CC(C)(C)O)(c2ccccc2)OC1=O` [Example 26, (S)-6-(2-Hydroxy-2-methyl-propyl)-3-((S)-1-{4-[1-((S)-1-methyl-pyrrolidine-2-carbonyl)-piperidin-4-yl]-phenyl}-ethyl)-6-phenyl-[1,3]oxazinan-2-one], the remaining activity at 0.1 µM is 80%. Consider `C[C@@H](c1ccc(C2CCN(C(=O)[C@H]3CCCN3C)CC2)cc1)N1CC[C@](CC(C)(C)O)(c2ccccc2)OC1=O` [Example 27, (S)-6-(2-Hydroxy-2-methyl-propyl)-3-((S)-1-{4-[1-((R)-1-methyl-pyrrolidine-2-carbonyl)-piperidin-4-yl]-phenyl}-ethyl)-6-phenyl-[1,3]oxazinan-2-one], for which the remaining activity at 0.1 µM worked out at 86%. On to `CNC(=O)N1CCC(c2ccc([C@H](C)N3CC[C@](CC(C)(C)O)(c4ccccc4)OC3=O)cc2)CC1` [Example 35, 4-(4-{(S)-1-[(S)-6-(2-Hydroxy-2-methyl-propyl)-2-oxo-6-phenyl-[1,3]oxazinan-3-yl]-ethyl}-phenyl)-piperidine-1-carboxylic acid methylamide], for which the remaining activity at 0.1 µM stood at 1%.

`C[C@@H](c1ccc(C2CCN(C(=O)N(C)C)CC2)cc1)N1CC[C@](CC(C)(C)O)(c2ccccc2)OC1=O` [Example 36, 4-((S)-4-{1-[(S)-6-(2-Hydroxy-2-methyl-propyl)-2-oxo-6-phenyl-[1,3]oxazinan-3-yl]-ethyl}-phenyl)-piperidine-1-carboxylic acid dimethylamide]: the remaining activity at 0.1 µM worked out at 31%.

Still in this experiment, the particulars now being: 1 μM inhibitor (footnote *), 100% indicates no inhibition, zero or below zero indicates complete inhibition, read-out: Average % control inhibition (1 μM inhibitor concentration).
With `C[C@@H](c1ccc(C2CCN(C)C(=O)C2)cc1)N1CC[C@](CC(C)(C)O)(c2ccccc2)OC1=O` (stereo partly drawn) [Example 33, (S)-6-(2-Hydroxy-2-methyl-propyl)-3-{(S)-1-[4-(1-methyl-2-oxo-piperidin-4-yl)-phenyl]-ethyl}-6-phenyl-[1,3]oxazinan-2-one], the remaining activity at 1 µM was -27%. With `C[C@@H](c1ccc(C2CCC(=O)N(C)C2)cc1)N1CC[C@](CC(C)(C)O)(c2ccccc2)OC1=O` (stereo partly drawn) [Example 34, (S)-6-(2-Hydroxy-2-methyl-propyl)-3-{(S)-1-[4-(1-methyl-6-oxo-piperidin-3-yl)-phenyl]-ethyl}-6-phenyl-[1,3]oxazinan-2-one], the remaining activity at 1 µM is -17%.

For the next experiment, the target named is T2, human 11β-HSD1 (microsomes isolated from CHO cells overexpressing human 11β-HSD1) (Homo sapiens, UniProt P28845).
T2 construct: expressed in transfected cells; host or cells: CHO cells (microsomes)
T2 sequence (P28845 whole entry): as above
Nature of the experiment: Inhibition of a microsomal preparation of 11β-HSD1, scintillation proximity assay. Format: biochemical. The settings on record: microsomes from CHO cells overexpressing human 11β-HSD1; [3H]cortisone, SPA, 90 minutes at rt. On the technique in general: In a scintillation proximity assay essentially only radioactivity close to the scintillant gives light.
Protocol: All reactions were carried out at rt in 96 well clear flexible PET Microbeta plates (PerkinElmer). […] After a 10 minute pre-incubation, 50 μL of enzyme solution containing microsomes isolated from CHO cells overexpressing human 11β-HSD1 (10-20 μg/ml of total protein) was added, and the plates were incubated for 90 minutes at rt. […] The plates were shaken for 120 minutes at rt, and the SPA signal corresponding to [^3H]cortisol was measured on a Microbeta plate reader.
For orientation: IC50 means the concentration at which inhibition is half-maximal. On to `Cc1nc2cc(-c3ccc([C@H](C)N4CCC(CC(C)(C)O)(C(C)C)OC4=O)cc3)ccc2n1C` (single isomer, unassigned) [Example 37], for which half-maximal inhibition (IC50) required 6.9 nM.

As to `CC(C)C1(CC(C)(C)O)CCN([C@@H](C)c2ccc(-c3ccc4c(c3)ncn4C)cc2)C(=O)O1` (stereo partly drawn) [Example 38, 6-(2-hydroxy-2-methylpropyl)-6-isopropyl-3-{(S)-1-[4-(1-methyl-1H-benzo[d]imidazol-5-yl)phenyl]ethyl}-1,3-oxazinan-2-one], half-maximal inhibition (IC50) was put at 7.7 nM.
